Literature values in patent US9120722B1, “Optically active valine complex and a method for producing the same” (Wellman Biosciences Co. Ltd., priority 2014, dated 2015).

Details: for Solubility in water of the sulfonic acid salt with L-valine: salts with L-valine, prior art U.S. Pat. No. 5,689,001 and No. 6,072,083

SMILES	Solubility in water of the sulfonic acid salt with L-valine [%]	Solubility (aqueous solution) (room temperature, stated as known)
CCc1ccc(S(=O)(=O)O)cc1 [p-ethylbenzene sulfonic acid]	14.5	
CC(C)[C@@H](N)C(=O)O [D-valine]		8-10%
CC(C)c1ccc(S(=O)(=O)O)cc1 [p-isopropylbenzene sulfonic acid]	7.8	
